Data: patent US20140221361A1, “C-19 MODIFIED TRITERPENOIDS WITH HIV MATURATION INHIBITORY ACTIVITY” (priority 2013, published 2014)

Tested on: recombinant NL4-3 virus (Renilla luciferase in nef, Gag P373S)
Experiment: HIV cell culture assay (luciferase reporter, MT-2 cells)
Format: cell-based, HIV-1
Details: luciferase activity, serial dilutions of inhibitor
How it was run: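 MT-2 cells infected with recombinant NL4-3 carrying Renilla luciferase in place of part of nef and Gag P373S, virus made by 293T transfection. Infection ran 4-5 days with serial inhibitor dilutions. Antiviral activity read as luciferase activity (Dual Luciferase reagents mixed with lysis buffer).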

[1] = MT-2 cells infected for 4-5 days with NLRluc recombinants
[2] = Renilla, NL43, MT-2 cells infected for 4-5 days with NLRluc recombinants

CC(C(=O)O)[C@@H]1CC[C@]2(NCCN3CCS(=O)(=O)CC3)CC[C@]3(C)[C@H](CC[C@@H]4[C@@]5(C)CC=C(c6ccc(C(=O)O)c(F)c6)C(C)(C)[C@@H]5CC[C@]43C)[C@@H]12 (stereo partly drawn) [Example A6, 4-((1R,3aS,5aR,5bR,7aR,11aS,11bR,13aR,13bR)-1-(1-carboxyethyl)-3a-((2-(1,1-dioxidothiomorpholino)ethyl)amino)-5a,5b,8,8,11a-pentamethyl-2,3,3a,4,5,5a,5b,6,7,7a,8,11,11a,11b,12,13,13a,13b-octadecahydro-1H-cyclopenta[a]chrysen-9-yl)-2-fluorobenzoic acid]
EC50 [1]: 390 nM

CC(C(=O)O)[C@@H]1CC[C@]2(NCCN3CCS(=O)(=O)CC3)CC[C@]3(C)[C@H](CC[C@@H]4[C@@]5(C)CC=C(c6ccc(C(=O)O)c(F)c6)C(C)(C)[C@@H]5CC[C@]43C)[C@@H]12 (stereo partly drawn) [Example A7, 4-((1R,3aS,5aR,5bR,7aR,11aS,11bR,13aR,13bR)-1-(1-carboxyethyl)-3a-((2-(1,1-dioxidothiomorpholino)ethyl)amino)-5a,5b,8,8,11a-pentamethyl-2,3,3a,4,5,5a,5b,6,7,7a,8,11,11a,11b,12,13,13a,13b-octadecahydro-1H-cyclopenta[a]chrysen-9-yl)-2-fluorobenzoic acid]
EC50 [1]: 110 nM

CC(C)(C)OC(=O)N[C@@H]1CC[C@]2(C(=O)O)CC[C@]3(C)[C@H](CC[C@@H]4[C@@]5(C)CC=C(C6=CCC(C(=O)O)CC6)C(C)(C)[C@@H]5CC[C@]43C)[C@@H]12 (stereo partly drawn) [Example A8, (1R,3aR,5aR,5bR,7aR,11aS,11bR,13aR,13bR)-1-((tert-butoxycarbonyl)amino)-9-(4-carboxycyclohex-1-en-1-yl)-5a,5b,8,8,11a-pentamethyl-2,3,3a,4,5,5a,5b,6,7,7a,8,11,11a,11b,12,13,13a,13b-octadecahydro-1H-cyclopenta[a]chrysene-3a-carboxylic acid]
EC50 [2]: 6.56 nM

CN(C)CCNC(=O)[C@]12CC[C@@H](NC(=O)OC(C)(C)C)[C@@H]1[C@H]1CC[C@@H]3[C@@]4(C)CC=C(C5=CCC(C(=O)O)CC5)C(C)(C)[C@@H]4CC[C@@]3(C)[C@]1(C)CC2 (stereo partly drawn) [Example A9, 4-((1R,3aR,5aR,5bR,7aR,11aS,11bR,13aR,13bR)-1-((tert-butoxycarbonyl)amino)-3a-((2-(dimethylamino)ethyl)carbamoyl)-5a,5b,8,8,11a-pentamethyl-2,3,3a,4,5,5a,5b,6,7,7a,8,11,11a,11b,12,13,13a,13b-octadecahydro-1H-cyclopenta[a]chrysen-9-yl)cyclohex-3-enecarboxylic acid]
EC50 [2]: 1.15 nM

CC(C)(O)[C@@H]1CC[C@]2(NCCN3CCS(=O)(=O)CC3)CC[C@]3(C)[C@H](CC[C@@H]4[C@@]5(C)CC=C(c6ccc(C(=O)O)cc6)C(C)(C)[C@@H]5CC[C@]43C)[C@@H]12 [Example B3, 4-((1R,3aS,5aR,5bR,7aR,11aS,11bR,13aR,13bS)-3a-((2-(1,1-dioxidothiomorpholino)ethyl)amino)-1-(2-hydroxypropan-2-yl)-5a,5b,8,8,11a-pentamethyl-2,3,3a,4,5,5a,5b,6,7,7a,8,11,11a,11b,12,13,13a,13b-octadecahydro-1H-cyclopenta[a]chrysen-9-yl)benzoic acid]
EC50 [2]: 1.3 nM

COC(C)(C)[C@@H]1CC[C@]2(NCCN3CCS(=O)(=O)CC3)CC[C@]3(C)[C@H](CC[C@@H]4[C@@]5(C)CC=C(c6ccc(C(=O)O)cc6)C(C)(C)[C@@H]5CC[C@]43C)[C@@H]12 [Example B4, 4-((1R,3aS,5aR,5bR,7aR,11aS,11bR,13aR,13bS)-3a-((2-(1,1-dioxidothiomorpholino)ethyl)amino)-1-(2-methoxypropan-2-yl)-5a,5b,8,8,11a-pentamethyl-2,3,3a,4,5,5a,5b,6,7,7a,8,11,11a,11b,12,13,13a,13b-octadecahydro-1H-cyclopenta[a]chrysen-9-yl)benzoic acid]
EC50 [2]: 2.06 nM

COCC(C)[C@@H]1CC[C@]2(NCCN3CCS(=O)(=O)CC3)CC[C@]3(C)[C@H](CC[C@@H]4[C@@]5(C)CC=C(c6ccc(C(=O)O)cc6)C(C)(C)[C@@H]5CC[C@]43C)[C@@H]12 (stereo partly drawn) [Example B7, 4-((1R,3aS,5aR,5bR,7aR,11aS,11bR,13aR,13bR)-3a-((2-(1,1-dioxidothiomorpholino)ethyl)amino)-1-(1-methoxypropan-2-yl)-5a,5b,8,8,11a-pentamethyl-2,3,3a,4,5,5a,5b,6,7,7a,8,11,11a,11b,12,13,13a,13b-octadecahydro-1H-cyclopenta[a]chrysen-9-yl)benzoic acid]
EC50 [2]: 0.945 nM

C/C=C1\CC[C@]2(NCCN3CCS(=O)(=O)CC3)CC[C@]3(C)[C@H](CC[C@@H]4[C@@]5(C)CC=C(c6ccc(C(=O)O)cc6)C(C)(C)[C@@H]5CC[C@]43C)[C@@H]12 [Example B13, 4-((3aS,5aR,5bR,7aR,11aS,11bR,13aR,13bS)-3a-((2-(1,1-dioxidothiomorpholino)ethyl)amino)-1-ethylidene-5a,5b,8,8,11a-pentamethyl-2,3,3a,4,5,5a,5b,6,7,7a,8,11,11a,11b,12,13,13a,13b-octadecahydro-1H-cyclopenta[a]chrysen-9-yl)benzoic acid]
EC50 [2]: 10 nM

CC1(C)C(c2ccc(C(=O)O)cc2)=CC[C@]2(C)[C@H]3CC[C@@H]4[C@H]5[C@H](C(=O)O)CC[C@]5(NCCN5CCS(=O)(=O)CC5)CC[C@@]4(C)[C@]3(C)CC[C@@H]12 [Example B17, (1R,3aS,5aR,5bR,7aR,11aS,11bR,13aR,13bS)-9-(4-carboxyphenyl)-3a-((2-(1,1-dioxidothiomorpholino)ethyl)amino)-5a,5b,8,8,11a-pentamethyl-2,3,3a,4,5,5a,5b,6,7,7a,8,11,11a,11b,12,13,13a,13b-octadecahydro-1H-cyclopenta[a]chrysene-1-carboxylic acid]
EC50 [2]: 2070 nM

CC([C@@H]1CC[C@]2(NCCN3CCS(=O)(=O)CC3)CC[C@]3(C)[C@H](CC[C@@H]4[C@@]5(C)CC=C(c6ccc(C(=O)O)cc6)C(C)(C)[C@@H]5CC[C@]43C)[C@@H]12)N1CCOCC1 (stereo partly drawn) [Example B20, 4-((1R,3aS,5aR,5bR,7aR,11aS,11bR,13aR,13bS)-3a-((2-(1,1-dioxidothiomorpholino)ethyl)amino)-5a,5b,8,8,11a-pentamethyl-1-(1-morpholinoethyl)-2,3,3a,4,5,5a,5b,6,7,7a,8,11,11a,11b,12,13,13a,13b-octadecahydro-1H-cyclopenta[a]chrysen-9-yl)benzoic acid]
EC50 [2]: 2.05 nM

CC(=O)NC(C)[C@@H]1CC[C@]2(NCCN3CCS(=O)(=O)CC3)CC[C@]3(C)[C@H](CC[C@@H]4[C@@]5(C)CC=C(c6ccc(C(=O)O)cc6)C(C)(C)[C@@H]5CC[C@]43C)[C@@H]12 (stereo partly drawn) [Example B21, 4-((1R,3aS,5aR,5bR,7aR,11aS,11bR,13aR,13bS)-1-(1-acetamidoethyl)-3a-((2-(1,1-dioxidothiomorpholino)ethyl)amino)-5a,5b,8,8,11a-pentamethyl-2,3,3a,4,5,5a,5b,6,7,7a,8,11,11a,11b,12,13,13a,13b-octadecahydro-1H-cyclopenta[a]chrysen-9-yl)benzoic acid]
EC50 [2]: 8.18 nM

COC(=O)NC(C)[C@@H]1CC[C@]2(NCCN3CCS(=O)(=O)CC3)CC[C@]3(C)[C@H](CC[C@@H]4[C@@]5(C)CC=C(c6ccc(C(=O)O)cc6)C(C)(C)[C@@H]5CC[C@]43C)[C@@H]12 (stereo partly drawn) [Example B22, 4-((1R,3aS,5aR,5bR,7aR,11aS,11bR,13aR,13bS)-3a-((2-(1,1-dioxidothiomorpholino)ethyl)amino)-1-(1-((methoxycarbonyl)amino)ethyl)-5a,5b,8,8,11a-pentamethyl-2,3,3a,4,5,5a,5b,6,7,7a,8,11,11a,11b,12,13,13a,13b-octadecahydro-1H-cyclopenta[a]chrysen-9-yl)benzoic acid]
EC50 [2]: 1.02 nM

CC(NC(=O)C(F)(F)F)[C@@H]1CC[C@]2(NCCN3CCS(=O)(=O)CC3)CC[C@]3(C)[C@H](CC[C@@H]4[C@@]5(C)CC=C(c6ccc(C(=O)O)cc6)C(C)(C)[C@@H]5CC[C@]43C)[C@@H]12 (stereo partly drawn) [Example B23, 4-((1R,3aS,5aR,5bR,7aR,11aS,11bR,13aR,13bS)-3a-((2-(1,1-dioxidothiomorpholino)ethyl)amino)-5a,5b,8,8,11a-pentamethyl-1-(1-(2,2,2-trifluoroacetamido)ethyl)-2,3,3a,4,5,5a,5b,6,7,7a,8,11,11a,11b,12,13,13a,13b-octadecahydro-1H-cyclopenta[a]chrysen-9-yl)benzoic acid]
EC50 [2]: 1.16 nM

CC1(C)C(c2ccc(C(=O)O)cc2)=CC[C@]2(C)[C@H]3CC[C@@H]4[C@H]5[C@H](C(=O)COS(=O)O)CC[C@]5(NCCN5CCS(=O)(=O)CC5)CC[C@@]4(C)[C@]3(C)CC[C@@H]12 [Example B24, 4-((1R,3aS,5aR,5bR,7aR,11aS,11bR,13aR,13bS)-3a-((2-(1,1-dioxidothiomorpholino)ethyl)amino)-5a,5b,8,8,11a-pentamethyl-1-(2-(sulfinooxy)acetyl)-2,3,3a,4,5,5a,5b,6,7,7a,8,11,11a,11b,12,13,13a,13b-octadecahydro-1H-cyclopenta[a]chrysen-9-yl)benzoic acid]
EC50 [2]: 1000 nM

CC1(C)C(c2ccc(C(=O)O)cc2)=CC[C@]2(C)[C@H]3CC[C@@H]4[C@H]5[C@H](C(=O)CO)CC[C@]5(NCCN5CCS(=O)(=O)CC5)CC[C@@]4(C)[C@]3(C)CC[C@@H]12 [Example B25, 4-((1R,3aS,5aR,5bR,7aR,11aS,11bR,13aR,13bS)-3a-((2-(1,1-dioxidothiomorpholino)ethyl)amino)-1-(2-hydroxyacetyl)-5a,5b,8,8,11a-pentamethyl-2,3,3a,4,5,5a,5b,6,7,7a,8,11,11a,11b,12,13,13a,13b-octadecahydro-1H-cyclopenta[a]chrysen-9-yl)benzoic acid]
EC50 [2]: 110 nM
